The values below are quoted from earlier work in paper PMC5613053 (Investigational New Drugs, 2017).

pIC50: −log10 of the molar value.

The subject of data set [1] is MV4–11 cells. Conditions: read-out: Concentration inhibiting growth of MV4–11 cells; cited from earlier work.
Data set [2] relates to MV4–11-luc cells. Further details: method as in PMID 24046014. Particulars: maximum tolerated dose; cited from earlier work.

For the compound `CC1(COc2ccc3c(c2)ncn3-c2ccc3cccc(N4CCC(N)CC4)c3n2)COC1` [crenolanib], the pIC50 in data set [1] is 8.89. Moreover, the “Efficacy in xenograft model” value in data set [2] was “limited efficacy”.
